Measured values from the NIST ThermoML archive (doi:10.1021/acs.jced.6b00786).

Assay: xn = mol fraction of the nth substance listed
Conditions: 101 kPa, Liquid, Vibrating tube method

NC=O [formamide] + O
mass density [kg/m3]
Conditions	288.15 K	298.15 K	308.15 K	323.15 K	333.15 K
x1 = 0.00244	–	997.942	994.873	988.848	983.879
x1 = 0.00515	–	998.905	995.763	989.627	984.704
x1 = 0.0086	–	1000.14	996.897	990.671	985.696
x1 = 0.02032	–	1004.2	1000.68	994.128	988.955
x1 = 0.03478	–	1009	1005.15	998.15	992.755
x1 = 0.04976	–	1013.73	1009.5	1002.11	996.5
x1 = 0.06674	–	1018.77	1014.31	1006.45	1000.6
x1 = 0.08229	–	1023.18	1018.42	1010.31	1004.2
x1 = 0.1171	–	1032.35	1027.15	1018.36	1011.84
x1 = 0.1745	–	1045.52	1039.6	1030.08	1023.19
x1 = 0.2169	–	1053.94	1047.65	1037.62	1030.56
x1 = 0.2557	–	1060.92	1054.32	1043.94	1036.75
x1 = 0.3026	–	1068.56	1061.67	1050.89	1043.42
x1 = 0.351	–	1075.56	1068.41	1057.31	1049.67
x1 = 0.4027	–	1082.34	1074.96	1063.57	1055.76
x1 = 0.4487	–	1087.78	1080.22	1068.62	1060.68
x1 = 0.4886	–	1092.05	1084.37	1072.62	1064.58
x1 = 0.5601	–	1099.14	1091.28	1079.26	1071.15
x1 = 0.5916	–	1102.04	1094.1	1081.99	1073.78
x1 = 0.6674	–	1108.34	1100.24	1087.95	1079.63
x1 = 0.7066	–	1111.34	1103.2	1090.81	1082.46
x1 = 0.7495	1122.53	1114.37	1106.15	1093.69	1085.28
x1 = 0.7931	1125.6	1117.37	1109.09	1096.56	1088.11
x1 = 0.8601	1129.96	1121.65	1113.29	1100.66	1092.16
x1 = 0.8996	1132.4	1124.05	1115.65	1102.97	1094.46
x1 = 0.948	1135.23	1126.82	1118.38	1105.65	1097.1
x1 = 0.9753	1136.78	1128.35	1119.88	1107.13	1098.56
x1 = 0.9847	1137.31	1128.87	1120.39	1107.62	1099.05
x1 = 0.9897	1137.59	1129.15	1120.66	1107.9	1099.33
x1 = 0.9959	1137.94	1129.5	1121.01	1108.24	1099.68
x1 = 1	1138.17	1129.73	1121.22	1108.46	1099.88
